Laboratory results taken from paper PMC9046087, “Structural basis of tethered agonism of the adhesion GPCRs ADGRD1 and ADGRF1” (Nature, 2022).
Ends that are not written are not given here.

How the values were obtained:
Assay in all cases: BRET assay using TRUPATH biosensors, Gi activation of ADGRF1
Assay type in all cases: cell-based
ADGRF1 [1] = biological target: T1, ADGRF1 (Homo sapiens, UniProt Q5T601, F672A); conditions: ADGRF1 F672^3.44bA
T1 construct: Flag (N); expressed in transfected cells; host or cells: HEK293F
In short: (§1)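 G protein activation by synthetic stalk peptides, read as GFP2-to-RLuc8 emission ratio from the fifth of five successive readings. Cells: HEK293F expressing receptor (WT or mutant) with GαsS-RLuc8 or Gαi1-RLuc8 plus Gβ3 and Gγ9-GFP2 (2:1:1:1). Pre-incubated 30 min at 37 °C; substrate coelenterazine 400a.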

ADGRF1 [2] = biological target: T2, ADGRF1 (Homo sapiens, UniProt Q5T601, G702Y); conditions: ADGRF1 G702^4.45bY, n = 3
T2 construct: Flag (N); expressed in transfected cells; host or cells: HEK293F
In short: as §1

ADGRF1 [3] = biological target: T3, ADGRF1 (Homo sapiens, UniProt Q5T601, G831A); conditions: ADGRF1 G831^7.50bA, n = 3
T3 construct: Flag (N); expressed in transfected cells; host or cells: HEK293F
In short: as §1

ADGRF1 [4] = biological target: T4, ADGRF1 (Homo sapiens, UniProt Q5T601, L678A); conditions: ADGRF1 L678^3.50bA
T4 construct: Flag (N); expressed in transfected cells; host or cells: HEK293F
In short: as §1

ADGRF1 [5] = biological target: T5, ADGRF1 (Homo sapiens, UniProt Q5T601, L681E); conditions: ADGRF1 L681^3.53bE
T5 construct: Flag (N); expressed in transfected cells; host or cells: HEK293F
In short: as §1

ADGRF1 [6] = biological target: T6, ADGRF1 (Homo sapiens, UniProt Q5T601, L799A); conditions: ADGRF1 L799^6.48bA
T6 construct: Flag (N); expressed in transfected cells; host or cells: HEK293F
In short: as §1

ADGRF1 [7] = biological target: T7, ADGRF1 (Homo sapiens, UniProt Q5T601, L800A); conditions: ADGRF1 L800^6.49bA
T7 construct: Flag (N); expressed in transfected cells; host or cells: HEK293F
In short: as §1

ADGRF1 [8] = biological target: T8, ADGRF1 (Homo sapiens, UniProt Q5T601, M675A); conditions: ADGRF1 M675^3.47bA
T8 construct: Flag (N); expressed in transfected cells; host or cells: HEK293F
In short: as §1

ADGRF1 [9] = biological target: T9, ADGRF1 (Homo sapiens, UniProt Q5T601, R623A); conditions: ADGRF1 R623^2.46bA
T9 construct: Flag (N); expressed in transfected cells; host or cells: HEK293F
T9 sequence (Q5T601 20-910 R623A): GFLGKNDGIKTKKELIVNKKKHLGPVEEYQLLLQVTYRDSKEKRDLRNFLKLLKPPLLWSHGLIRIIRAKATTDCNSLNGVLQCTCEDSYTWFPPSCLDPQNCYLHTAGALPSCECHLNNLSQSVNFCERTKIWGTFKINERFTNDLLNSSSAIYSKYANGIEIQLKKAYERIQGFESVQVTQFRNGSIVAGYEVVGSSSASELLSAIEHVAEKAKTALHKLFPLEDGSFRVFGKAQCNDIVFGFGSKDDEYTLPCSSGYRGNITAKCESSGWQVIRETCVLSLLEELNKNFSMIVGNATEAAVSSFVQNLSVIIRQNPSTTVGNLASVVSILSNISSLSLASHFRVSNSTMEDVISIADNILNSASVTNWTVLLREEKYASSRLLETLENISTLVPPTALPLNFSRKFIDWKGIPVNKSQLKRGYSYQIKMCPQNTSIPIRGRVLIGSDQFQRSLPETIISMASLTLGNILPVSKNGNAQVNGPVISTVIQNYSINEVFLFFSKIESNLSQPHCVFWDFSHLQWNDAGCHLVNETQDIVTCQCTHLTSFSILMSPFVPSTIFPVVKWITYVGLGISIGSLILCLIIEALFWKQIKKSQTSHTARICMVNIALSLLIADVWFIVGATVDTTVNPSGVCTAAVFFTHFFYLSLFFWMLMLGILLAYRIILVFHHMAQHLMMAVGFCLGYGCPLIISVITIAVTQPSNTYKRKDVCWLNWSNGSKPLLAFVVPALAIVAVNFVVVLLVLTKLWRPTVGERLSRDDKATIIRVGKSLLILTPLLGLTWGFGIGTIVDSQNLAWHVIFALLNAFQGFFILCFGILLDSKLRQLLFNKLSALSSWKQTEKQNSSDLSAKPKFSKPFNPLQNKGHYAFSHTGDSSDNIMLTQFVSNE
In short: as §1

ADGRF1 [10] = biological target: T10, ADGRF1 (Homo sapiens, UniProt Q5T601, W734A); conditions: ADGRF1 W734^ECL2A
T10 construct: Flag (N); expressed in transfected cells; host or cells: HEK293F
In short: as §1

ADGRF1 [11] = biological target: T11, ADGRF1 (Homo sapiens, UniProt Q5T601, Y668A); conditions: ADGRF1 Y668^3.40bA
T11 construct: Flag (N); expressed in transfected cells; host or cells: HEK293F
In short: as §1

[12] = n = 3, read-out: pEC50 (mean ± s.e.m.) (converted)

T5 sequence (Q5T601 20-910 L681E): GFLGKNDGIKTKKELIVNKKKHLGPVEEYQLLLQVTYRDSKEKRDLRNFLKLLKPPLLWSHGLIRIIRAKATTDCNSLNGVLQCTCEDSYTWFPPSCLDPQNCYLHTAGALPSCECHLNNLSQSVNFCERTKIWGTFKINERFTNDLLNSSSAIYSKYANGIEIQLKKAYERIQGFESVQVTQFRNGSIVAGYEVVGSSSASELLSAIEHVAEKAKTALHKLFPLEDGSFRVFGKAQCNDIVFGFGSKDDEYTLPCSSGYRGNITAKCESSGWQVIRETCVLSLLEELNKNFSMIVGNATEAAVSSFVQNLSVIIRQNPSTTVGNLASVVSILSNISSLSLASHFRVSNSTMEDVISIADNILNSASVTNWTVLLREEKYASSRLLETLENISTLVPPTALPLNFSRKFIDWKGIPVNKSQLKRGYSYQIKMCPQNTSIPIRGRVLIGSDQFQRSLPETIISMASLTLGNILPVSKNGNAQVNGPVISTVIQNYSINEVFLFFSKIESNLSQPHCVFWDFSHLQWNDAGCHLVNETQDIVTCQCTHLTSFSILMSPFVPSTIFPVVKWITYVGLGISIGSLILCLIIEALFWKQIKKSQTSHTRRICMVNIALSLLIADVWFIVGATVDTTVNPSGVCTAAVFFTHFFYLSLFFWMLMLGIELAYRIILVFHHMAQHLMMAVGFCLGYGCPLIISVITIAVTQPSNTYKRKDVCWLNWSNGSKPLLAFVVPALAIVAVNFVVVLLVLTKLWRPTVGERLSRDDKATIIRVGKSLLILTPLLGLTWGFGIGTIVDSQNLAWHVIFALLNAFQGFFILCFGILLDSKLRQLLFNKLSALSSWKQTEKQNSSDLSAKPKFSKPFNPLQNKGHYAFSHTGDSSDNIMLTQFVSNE
T1 sequence (Q5T601 20-910 F672A): as the sequence (Q5T601 20-910 L681E) above, with F653A, E662L counted along it
T11 sequence (Q5T601 20-910 Y668A): as the sequence (Q5T601 20-910 L681E) above, with Y649A, E662L counted along it
T2 sequence (Q5T601 20-910 G702Y): as the sequence (Q5T601 20-910 L681E) above, with E662L, G683Y counted along it
T8 sequence (Q5T601 20-910 M675A): as the sequence (Q5T601 20-910 L681E) above, with M656A, E662L counted along it
T6 sequence (Q5T601 20-910 L799A): as the sequence (Q5T601 20-910 L681E) above, with E662L, L780A counted along it
T7 sequence (Q5T601 20-910 L800A): as the sequence (Q5T601 20-910 L681E) above, with E662L, L781A counted along it
T4 sequence (Q5T601 20-910 L678A): as the sequence (Q5T601 20-910 L681E) above, with L659A, E662L counted along it
T3 sequence (Q5T601 20-910 G831A): as the sequence (Q5T601 20-910 L681E) above, with E662L, G812A counted along it
T10 sequence (Q5T601 20-910 W734A): as the sequence (Q5T601 20-910 L681E) above, with E662L, W715A counted along it

TSFSILMSPFVP [pF1]
Emax (mean ± s.e.m.) (ADGRF1 [1]; n = 3): 72 ± 12 % of WT
EC50 (ADGRF1 [1]; [12]): 437 nM
EC50 (ADGRF1 [2]): 1170 nM
Emax (mean ± s.e.m.) (ADGRF1 [2]): 94 ± 16 % of WT
EC50 (ADGRF1 [3]): 1040 nM
Emax (mean ± s.e.m.) (ADGRF1 [3]): 97 ± 15 % of WT
Emax (mean ± s.e.m.) (ADGRF1 [4]; n = 3): 58 ± 7 % of WT
EC50 (ADGRF1 [4]; [12]): 129 nM
Emax (mean ± s.e.m.) (ADGRF1 [5]; n = 3): 130 ± 12 % of WT
EC50 (ADGRF1 [5]; [12]): 794 nM
Emax (mean ± s.e.m.) (ADGRF1 [6]; n = 3): 109 ± 11 % of WT
EC50 (ADGRF1 [6]; [12]): 380 nM
Emax (mean ± s.e.m.) (ADGRF1 [7]; n = 3): 105 ± 8 % of WT
EC50 (ADGRF1 [7]; [12]): 257 nM
Emax (mean ± s.e.m.) (ADGRF1 [8]; n = 3): 81 ± 13 % of WT
EC50 (ADGRF1 [8]; [12]): 427 nM
Emax (mean ± s.e.m.) (ADGRF1 [9]; n = 3): 120 ± 8 % of WT
EC50 (ADGRF1 [9]; [12]): 447 nM
Emax (mean ± s.e.m.) (ADGRF1 [10]; n = 3): 60 ± 11 % of WT
EC50 (ADGRF1 [10]; [12]): 138 nM
Emax (mean ± s.e.m.) (ADGRF1 [11]; n = 3): 123 ± 17 % of WT
EC50 (ADGRF1 [11]; [12]): 355 nM
